# Data: patent US20230416785A1, “NUCLEASE AND APPLICATION THEREOF” (CRISP-HR Therapeutics, Inc., priority 2020, published 2023)
# Entries after “also recorded” stand apart in the source; their conditions may differ.
# Assays:
# AAVS1 [1] = test: RLucRT HDR assay in A549 cells; type: cell-based, human; conditions: G1
# [2] = system: intergenic region on Chromosome 6 (Int-G2, Int-G3); test: PuroRT HDR quantification in K562 cells (puromycin survival); type: cell-based, human
# Excerpt: The target integration site is approximately ˜1 kb to the 3′ end of the human H2B gene on Chromosome 6, an intergenic region which has no predicted genes or long non-coding RNA.
# Next, to assay HDR rates, K562 cells were again used instead of A549 cells, as the lack of a functional p53 gene should help to deconvolute HDR rates from cellular toxicity effects. […] After two days, DNA was extracted from ˜ 1/10 of surviving cells and used for analysis of Puro RT genomic integration. The next day, 0.5 mg/mL puromycin was added, and after three days cellular survival was quantified via resazurin assay as described previously.
# After two days, 1/10 of cells were taken for DNA extraction, while the rest were treated with 0.5 μg/mL puromycin. Cells were grown for a further 3 days then viability quantified via Resazurin assay.
# endogenous H2B = test: H2B-mNeon knock-in HDR quantification in K562 cells; type: cell-based, human; conditions: H2B-mNeon RT
# Method: After two days, cells were fixed in 4% PFA washed in PBS, then directly imaged, with cells showing nuclear localized fluorescence counted as successful HDR events.
# K562 were grown in 24 well plates with RPMI-1640 supplemented with 5% FBS until roughly 70% confluent. At that time cells were either electroporated using the mNeon system (Invitrogen) using optimized settings for K562 cells, or lipofectamine 3000 again following manufactures instructions. Cells were then returned to 24 well plates with fresh media and grown for at least two days before being used in downstream analysis.
# After 2 days, cells attached to coverslips coated with 0.01% poly-1-lysine, and were fixed in 4% PFA (Thermofisher) for 15 minutes at RT. After fixation, cells were washed 3× in PBS, mounted in 50% glycerol and imaged on a Nikon Eclipse E600 with standard FITC filters. For quantification, random patches of cells (usually between 8-15 cells per image) were identified via Brightfield, then fluoresce images were taken with constant illumination and exposure time (100%, and 110 ms respectively).
# AAVS1 [3] = test: RLucRT luminescence HDR assay in H1299 cells; type: cell-based, human; conditions: for luminescence relative to Cas9: RLucRT (2.0 kb)
# Method: FIG. 4B illustrates experimental procedures for RLucRT experiments. Diagram showing experimental procedure for the dsDNA RLucRT HDR assay in H1299 cells. […] After two days, cellular viability is quantified via Resazurin assay, then cells are washed with PBS then lysed. Lysate is then incubated with Coelenterazine, and luminescence immediately quantified via plate reader.
# For these experiments, the well characterized safe harbor site AAVS1 was used combined with previously established and functional guide RNAs AAVS1 T1 and T2, which will be referred to as G1 and G2 respectively hereafter. […] As with the puromycin resistance cassette, PCR amplified dsDNA was used as opposed to plasmids to avoid confounding results when quantifying HDR rates, and to avoid extra integration of plasmid specific sequences in the genome.
# Next the viability of transfected cells was quantified via resazurin after two days, then cells were washed with PBS, then lysed and luminescence quantified via plate reader (FIG. 4B). […] Next Luminescence was quantified via the Renilla-Glo Luciferase Assay System (Promega) using a 96 well plate reader with luminescence capabilities (Tecan). After data collection, raw luminescence was background subtracted from non-transfected control cells, corrected for cellular viability, and plotted in FIG. 4D.
# After two days, cellular viability was quantified via Resazurin, then washed with PBS and lysed with 25 μL of cell lysis buffer, and luciferase activity was quantified via Renilla Luciferase Assay (Promega) and using a Tecan Infinite Mplex plate reader.
# CDH1 = test: CDH1:mCherry knock-in in HEK293 cells; type: cell-based, human; conditions: Ecad-G1
# Method: After three days, media was replaced with HBSS (to reduce background for imaging) imaged using an Cytation5 imaging system. Imaging was performed by taking a 6×6 stitched image in the middle of the well using an 10× magnification lens, where both brightfield and RFP images were acquired. HDR rates were quantified via ImageJ, two independent replicates were performed per treatment. FIG. 13A illustrates a Cadherin1:mCherry RT design showing the human genomic region surrounding the last exon (exon 16) of Cadherin1. Two different gRNAs are denoted by black arrows (G1, G2), with arrow direction indicating the targeted strand. A repair template was constructed containing about 750 bp long 5′ and 3′ Homology arms, exon 16 of Cadherin1, silent mutations introduced to prevent gRNA binding to the RT, and a direct fusion of the fluorescent protein mCherry. FIG. 13B illustrates quantification of Cadherin1:mCherry HDR rate in H1299 cells showing the average mCherry+ cells per image section (>10 for all conditions) imaged at day 3 post transfection.
# [4] = system: Safe Harbor Site (SHS)-231; test: SHS-231 mNeon knock-in in H1299 cells; type: cell-based, human
# Excerpt: After reaching confluency, cells were tryspinized and seeded in 6 well plates, which were then imaged at 10× magnification using a Leica THUNDER Epifluorescent microscope. After imaging, thresholds and ROIs for mNeon+ cells were generated using FIJI (ImageJ).
# After 7 days, cells were tryspinized and transferred to 6 well plates, and grown for an additional 7 days. On Day 14, media was replaced with HBSS (to reduce background for imaging) and imaged using a Cytation5 imaging system. Imaging was performed by taking a 6×6 stitched image in the middle of the well using an 10× magnification lens, where both brightfield and RFP images were acquired. HDR rates were quantified via ImageJ, two independent replicates were performed per treatment.
# Beta-Catenin1 = test: Beta-Catenin1:mCherry HDR in H1299 cells; type: cell-based, human
# Method: (§1) After three days, media was replaced with HBSS (to reduce background for imaging) imaged using an EVOS M5000 imaging system. Imaging was performed by randomly finding and focusing on at least ten different sections per well using a 20× magnification lens, after which both brightfield and RFP images were acquired. Imaged were quantified by hand, using control images as the basis for RFP/mCherry background fluorescence.
# Cadherin1 = test: Cadherin1:mCherry HDR in H1299 cells; type: cell-based, human
# Method: as §1, with “10×” for “20×”
# HBB amplicon = test: In-vitro exonuclease assay with purified proteins; type: biochemical, human; conditions: 30 nM protein, 3 nM HBB amplicon, 37° C., 60 minutes
# Method: Reactions were then electrophoresed and visualized on an agarose gel. FIG. 5C illustrates quantification of exonuclease activity. Quantification of exonuclease activity assayed in FIG. 5B. 3 replicates were performed for each reaction and were quantified via FIJI (ImageJ) and then normalized to control amplicon levels.
# Reactions were then electrophoresed and visualized on an agarose gel.
# DNA was isolated from wildtype K562 cells, and amplified using standard Taq DNA polymerase and HBB-out-F (5′-[…]-3′ (SEQ ID NO: 125)) and HBB-out-R (5′-[…]-3′ (SEQ ID NO: 126)), Tm=56 for 35 cycles, and purified using the Qiagen PCR cleanup kit. […] The samples were then electrophoresed on a standard 1% TAE agarose gel stained with gel green.
# [5] = SHS-231 G1, 14 Days, stitched images
# [6] = comparison with Dna2 fusions, day 3
substance,measurement,setting,value
Cas9-HR 8: hExo1(1-352)-Cas9 fusion of FIG. 1A; E. coli codon optimized vectors SEQ ID NO: 68 and 69,HDR rates compared to Cas9 (normalized luminescence),AAVS1 [1],~2.5 ×
same,PCR of genomic integration of Puro RT at 5′ and 3′ ends,[2],successful integration of the repair template
same,PCR of 5′ and 3′ knock-in junctions,endogenous H2B; genome specific plus RT specific primers,Successful amplification
same,HDR rate (cells with nuclear localized mNeon fluorescence),"endogenous H2B; hH2B-G4, two days, compared to Cas9-HR 4 or Cas9",significant increase in HDR rate
same,nested junction PCR of RLucRT integration (5′ and 3′),AAVS1 [3]; AAVS1-G1,Strong specific amplification
same,luminescence relative to Cas9,AAVS1 [3]; AAVS1 G1,~2.5 fold
same,luminescence relative to Cas9,AAVS1 [3]; AAVS1 G2,~2 fold
same,"luminescence, AAVS1-G1 compared with AAVS1-G2",AAVS1 [3]; background subtracted,significantly higher luminescence
same,increase in HDR rates compared to Cas9 (Cas9 normalized luminescence),AAVS1 [3]; both G1 and G2,2-3 ×
same,HDR rates compared to Cas9 (normalized knock-in rates),CDH1,~3.5 ×
same,absolute mCherry+ cells relative to Cas9-NT or repair template alone,CDH1,significant increases in mCherry+ cells
same,numbers of mCherry+ cells compared to repair template,CDH1,significantly increased numbers of mCherry+ cells
same,cellular fluorescence (expression) levels of mNeon+ cells compared to Cas9,[4]; 14 days,much more uniform and lower expression levels
same,absolute numbers of mNeon+ cells,"[4]; SHS-231-G1, SHS-231-mNeon RT, 14 days post-transfection",3652
same,mNeon cell counts normalized to Cas9,"[4]; SHS-231-G2, two independent experiments",increase of HDR rates
same,GFP+ cells compared to Cas9,[4]; [5],significantly more GFP+ cells
same,total cells compared to Cas9,[4]; [5],significantly more total cells
same,fold change in mCherry+ cells relative to Cas9,"Beta-Catenin1; G2, day 3",~2.5 fold
same,fold change in mCherry+ cells relative to Cas9,"Beta-Catenin1; G3, day 3",~2.5 fold
same,fold increase in mCherry+ cells relative to Cas9,"Beta-Catenin1; all guide polynucleotides (G1, G2, G3), day 3",> 2 fold
same,mCherry+ cells compared to Cas9,"Beta-Catenin1; all three gRNAs, day 3",significant increases in mCherry+ cells
same,positive cell count compared to Beta-Catenin1:mCherry alone,"Beta-Catenin1; average mCherry+ cells per image section, day 3",significant increases in positive cell count
same,"mCherry+ cells, whole well imaging","Cadherin1; H1299 cells, 12 well plate, Ecad-G1, 4 Days after transfection",significant amounts of mCherry+ cells; also recorded: significantly higher amounts of mCherry+ cells
same,fold change in mCherry+ cells relative to Cas9,"Cadherin1; H1299 cells, G1, day 3",~2.3 fold
same,fold increase in mCherry+ cells relative to Cas9,"Cadherin1; H1299 cells, all guide polynucleotides, day 3",> 1.5 fold
same,mCherry+ cells compared to Cas9,"Cadherin1; H1299 cells, all three gRNAs (so in the source), day 3",significant increases in mCherry+ cells
same,positive cell count compared to Cadherin1:mCherry alone,"Cadherin1; H1299 cells, average mCherry+ cells per image section, day 3",significant increases in positive cell count
same,normalized Cadherin1:mCherry HDR rate (fold change compared to Cas9),Cadherin1; comparison with Dna2 fusions,significantly higher HDR rate
same,mCherry+ cell count compared to Cadherin1:mCherry RT alone,Cadherin1; [6],significant increases in mCherry+ cell count
same,mCherry+ cells compared to Cas9,Cadherin1; [6],significant increases in mCherry+ cells
same,exonuclease activity (reduction of full length HBB amplicon),HBB amplicon,significant reduction in the full length HBB amplicon; also recorded: significant exonuclease activity
